Read-outs that look alike come from different tables or passages of the source. Where a SMILES comes first, the peptide text is derived from it. Bridges are numbered along the chain shown (N, C = ends). [ ]: non-standard residue; d: D form. Gly(cPent) = N[C@H](C(=O)O)C1CCCC1; Tle = CC(C)(C)[C@H](N)C(=O)O; dDab = NCC[C@@H](N)C(=O)O; Orn = NCCC[C@H](N)C(=O)O; Dab = NCC[C@H](N)C(=O)O
Tests used:
[1] = test system: Escherichia coli ATCC 25922; assay type: cell-based
Procedure, shortened: (§1)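 Peptide MICs were determined by NCCLS broth microdilution in cation-adjusted Mueller-Hinton II broth. Inoculum was about 10^6 CFU/mL, matched to 0.5 McFarland, with peptides in two-fold serial dilutions. The broth contained Polysorbate 80 at 0.002% final concentration.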

[2] = test system: Klebsiella pneumoniae ATCC 13883; assay type: cell-based
Procedure, shortened: as §1

[3] = test system: Acinetobacter baumannii DSM 30008; assay type: cell-based
Procedure, shortened: as §1

[4] = test system: human red blood cells (hRBC); test: Hemolysis: hemolytic activity at 100 μg/mL, 1 h at 37° C.
Procedure, shortened: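 Peptides at 100 μg/mL incubated with washed 20% (v/v) human erythrocytes (~0.9×10^9 cells/mL) for 1 h at 37 °C with shaking. Released hemoglobin read at OD 540 nm in supernatant; 0% and 100% lysis from PBS/0.001% acetic acid and 2.5% Triton X-100.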

[5] = Mueller-Hinton II broth, 18-20 hours at 35° C.
[6] = 100 μg/mL, 20% hRBC, 1 h at 37° C.

Structure (SMILES)	Escherichia coli ATCC 25922 MIC ([1]; ATCC 25922) [µg/mL]	Klebsiella pneumoniae ATCC 13883 MIC ([2]; ATCC 13883) [µg/mL]	Acinetobacter baumannii DSM 30008 MIC ([3]; DSM 30008) [µg/mL]	Hemolysis at 100 μg/mL ([4]; red cells of human, 1 h, 100) [%]	Escherichia coli ATCC 25922 MIC [1, 5] [µg/mL]	Klebsiella pneumoniae ATCC 13883 MIC [2, 5] [µg/mL]	Acinetobacter baumannii DSM 30008 MIC [3, 5] [µg/mL]	Hemolysis at 100 μg/mL [4, 6] [%]
CC(C)C[C@@H]1NC(=O)[C@H](CCN)NC(=O)[C@H]2CCCN2C(=O)[C@H](C(C)C)NC(=O)[C@H]([C@@H](C)O)NC(=O)[C@H](C(C)C)NC(=O)[C@@H]2CSSC[C@H](NC(=O)[C@H](Cc3ccc(O)cc3)NC(=O)[C@H]([C@@H](C)O)NC1=O)C(=O)N[C@@H](CCN)C(=O)N[C@H](CCN)C(=O)N[C@@H](CCN)C(=O)N[C@@H](Cc1c[nH]c3ccccc13)C(=O)N2 [Example 37, cyclo(-Leu-Thr-Tyr-Cys-Dab-^DDab-Dab-Trp-Cys-Val-Thr-Val-^DPro-Dab-)] (HELM PEPTIDE1{C.[Dab].[NCC[C@@H](N[*:1])C(=O)[*:2]].[Dab].W.C.V.T.V.[dP].[Dab].L.T.Y}$PEPTIDE1,PEPTIDE1,1:R3-6:R3|PEPTIDE1,PEPTIDE1,1:R1-14:R2$$$V2.0)	4	2	2	2				
CC(C)[C@@H]1NC(=O)[C@@H]2CSSC[C@H](NC(=O)[C@H](C3CCCC3)NC(=O)[C@H](CCCNC(=N)N)NC(=O)[C@@H](CCN)NC1=O)C(=O)N[C@@H](Cc1ccc(O)cc1)C(=O)N[C@@H](CC(N)=O)C(=O)N[C@@H](CCCN)C(=O)N[C@H](CCN)C(=O)N[C@@H](CCN)C(=O)N[C@@H](Cc1c[nH]c3ccccc13)C(=O)N[C@@H](CO)C(=O)N[C@@H](Cc1ccc(O)cc1)C(=O)N2 [Example 59, cyclo(-Cpg-Cys-Tyr-Asn-Orn-^DDab-Dab-Trp-Ser-Tyr-Cys-Val-^DDab-Arg-)] (cyclo(CV[dDab]R[Gly(cPent)]CYN[Orn][dDab][Dab]WSY); disulfide 1-6)	1	0.75	0.75	1				
CC[C@@H]1NC(=O)[C@H](CCCNC(=N)N)NC(=O)[C@@H](CCN)NC(=O)[C@H](C(C)C)NC(=O)[C@@H]2CSSC[C@H](NC1=O)C(=O)N[C@@H](Cc1ccc(O)cc1)C(=O)N[C@@H](CC(N)=O)C(=O)N[C@@H](CCCN)C(=O)N[C@H](CCN)C(=O)N[C@@H](CCN)C(=O)N[C@@H](Cc1c[nH]c3ccccc13)C(=O)N[C@@H](CO)C(=O)N[C@@H](Cc1ccc(O)cc1)C(=O)N2 [Example 61, cyclo(-Abu-Cys-Tyr-Asn-Orn-^DDab-Dab-Trp-Ser-Tyr-Cys-Val-^DDab-Arg-)] (HELM PEPTIDE1{[Abu].C.Y.N.[Orn].[NCC[C@@H](N[*:1])C(=O)[*:2]].[Dab].W.S.Y.C.V.[NCC[C@@H](N[*:1])C(=O)[*:2]].R}$PEPTIDE1,PEPTIDE1,2:R3-11:R3|PEPTIDE1,PEPTIDE1,1:R1-14:R2$$$V2.0)	2	2	1.5	1				
CC(C)C[C@@H]1NC(=O)[C@H](CCCNC(=N)N)NC(=O)[C@H]2CCCN2C(=O)[C@H](C(C)C)NC(=O)[C@@H]2CSSC[C@H](NC1=O)C(=O)N[C@@H](Cc1ccc(O)cc1)C(=O)N[C@@H](C)C(=O)N[C@@H](CCN)C(=O)N[C@@H](CCN)C(=O)N[C@@H](CCN)C(=O)N[C@@H](Cc1c[nH]c3ccccc13)C(=O)N[C@@H](C)C(=O)N[C@@H](C(C)C)C(=O)N2 [Example 1, cyclo(-Leu-Cys-Tyr-Ala-Dab-Dab-Dab-Trp-Ala-Val-Cys-Val-^DPro-Arg-)] (HELM PEPTIDE1{A.[Dab].[Dab].[Dab].W.A.V.C.V.[dP].R.L.C.Y}$PEPTIDE1,PEPTIDE1,8:R3-13:R3|PEPTIDE1,PEPTIDE1,1:R1-14:R2$$$V2.0)					2	1	0.75	5
CC(C)[C@@H]1NC(=O)[C@@H]2CCCN2C(=O)[C@@H](Cc2ccc(O)cc2)NC(=O)[C@H]([C@@H](C)O)NC(=O)[C@@H]2CSSC[C@H](NC1=O)C(=O)N[C@@H](Cc1ccc(O)cc1)C(=O)N[C@@H](CCN)C(=O)N[C@@H](CN)C(=O)N[C@@H](CCN)C(=O)N[C@@H](CCN)C(=O)N[C@@H](Cc1c[nH]c3ccccc13)C(=O)N[C@@H](CCN)C(=O)N[C@@H](C(C)(C)C)C(=O)N2 [Example 15, cyclo(-Val-Cys-Tyr-Dab-Dap-Dab-Dab-Trp-Dab-tBuGly-Cys-Thr-^DTyr-Pro-)] (HELM PEPTIDE1{C.T.[dY].P.V.C.Y.[Dab].[NC[C@H](N[*:1])C(=O)[*:2]].[Dab].[Dab].W.[Dab].[CC(C)(C)[C@H](N[*:1])C(=O)[*:2]]}$PEPTIDE1,PEPTIDE1,1:R3-6:R3|PEPTIDE1,PEPTIDE1,1:R1-14:R2$$$V2.0)					0.5	0.25	0.5	2
CC(C)C[C@@H]1NC(=O)[C@H](CCCNC(=N)N)NC(=O)[C@H]2CCCN2C(=O)[C@H](C(C)C)NC(=O)[C@@H]2CSSC[C@H](NC1=O)C(=O)N[C@@H](Cc1ccc(O)cc1)C(=O)N[C@@H](C)C(=O)N[C@@H](CCCN)C(=O)N[C@H](CCN)C(=O)N[C@@H](CCN)C(=O)N[C@@H](Cc1c[nH]c3ccccc13)C(=O)N[C@@H](C)C(=O)N[C@@H](C(C)C)C(=O)N2 [Example 3, cyclo(-Leu-Cys-Tyr-Ala-Orn-^DDab-Dab-Trp-Ala-Val-Cys-Val-^DPro-Arg-)] (HELM PEPTIDE1{A.[Orn].[NCC[C@@H](N[*:1])C(=O)[*:2]].[Dab].W.A.V.C.V.[dP].R.L.C.Y}$PEPTIDE1,PEPTIDE1,8:R3-13:R3|PEPTIDE1,PEPTIDE1,1:R1-14:R2$$$V2.0)	2	1	1	4				
CC(C)C[C@@H]1NC(=O)[C@H](CCCNC(=N)N)NC(=O)[C@@H](CCN)NC(=O)[C@H](C(C)C)NC(=O)[C@@H]2CSSC[C@H](NC1=O)C(=O)N[C@@H](C(C)C)C(=O)N[C@@H](CC(N)=O)C(=O)N[C@@H](CCCN)C(=O)N[C@H](CCN)C(=O)N[C@@H](CCN)C(=O)N[C@@H](Cc1c[nH]c3ccccc13)C(=O)N[C@@H](CO)C(=O)N[C@@H](Cc1ccc(O)cc1)C(=O)N2 [Example 18, cyclo(-Leu-Cys-Val-Asn-Orn-^DDab-Dab-Trp-Ser-Tyr-Cys-Val-^DDab-Arg-)] (HELM PEPTIDE1{C.V.N.[Orn].[NCC[C@@H](N[*:1])C(=O)[*:2]].[Dab].W.S.Y.C.V.[NCC[C@@H](N[*:1])C(=O)[*:2]].R.L}$PEPTIDE1,PEPTIDE1,1:R3-10:R3|PEPTIDE1,PEPTIDE1,1:R1-14:R2$$$V2.0)	0.5	0.5	0.25	8				
CC(C)C[C@@H]1NC(=O)[C@H](CCCNC(=N)N)NC(=O)[C@@H](CCN)NC(=O)[C@H](C(C)C)NC(=O)[C@@H]2CSSC[C@H](NC1=O)C(=O)N[C@@H](C(C)C)C(=O)N[C@@H]([C@@H](C)O)C(=O)N[C@@H](CCCN)C(=O)N[C@H](CCN)C(=O)N[C@@H](CCN)C(=O)N[C@@H](Cc1c[nH]c3ccccc13)C(=O)N[C@@H]([C@@H](C)O)C(=O)N[C@@H](Cc1ccc(O)cc1)C(=O)N2 [Example 25, cyclo(-Leu-Cys-Val-Thr-Orn-^DDab-Dab-Trp-Thr-Tyr-Cys-Val-^DDab-Arg-)] (HELM PEPTIDE1{C.V.T.[Orn].[NCC[C@@H](N[*:1])C(=O)[*:2]].[Dab].W.T.Y.C.V.[NCC[C@@H](N[*:1])C(=O)[*:2]].R.L}$PEPTIDE1,PEPTIDE1,1:R3-10:R3|PEPTIDE1,PEPTIDE1,1:R1-14:R2$$$V2.0)	1	1	0.25	3				
CC(C)C[C@@H]1NC(=O)[C@H](CCCNC(=N)N)NC(=O)[C@@H](CCCCN)NC(=O)[C@H](C(C)C)NC(=O)[C@@H]2CSSC[C@H](NC1=O)C(=O)N[C@@H](Cc1ccc(O)cc1)C(=O)N[C@@H](CC(N)=O)C(=O)N[C@@H](CCCN)C(=O)N[C@H](CCN)C(=O)N[C@@H](CCN)C(=O)N[C@@H](Cc1c[nH]c3ccccc13)C(=O)N[C@@H](CO)C(=O)N[C@@H](Cc1ccc(O)cc1)C(=O)N2 [Example 65, cyclo(-Leu-Cys-Tyr-Asn-Orn-^DDab-Dab-Trp-Ser-Tyr-Cys-Val-^DLys-Arg-)] (HELM PEPTIDE1{C.V.[dK].R.L.C.Y.N.[Orn].[NCC[C@@H](N[*:1])C(=O)[*:2]].[Dab].W.S.Y}$PEPTIDE1,PEPTIDE1,1:R3-6:R3|PEPTIDE1,PEPTIDE1,1:R1-14:R2$$$V2.0)	2	1	1.25	1				
CC[C@H](C)[C@@H]1NC(=O)[C@H](C)NC(=O)[C@@H](CCN)NC(=O)[C@H](CO)NC(=O)[C@@H]2CSSC[C@H](NC1=O)C(=O)N[C@@H](Cc1ccc(O)cc1)C(=O)N[C@@H](CCN)C(=O)N[C@@H](CCCN)C(=O)N[C@H](CCN)C(=O)N[C@@H](CCN)C(=O)N[C@@H](Cc1c[nH]c3ccccc13)C(=O)N[C@@H](CCN)C(=O)N[C@@H](C(C)(C)C)C(=O)N2 [Example 13, cyclo(-Ile-Cys-Tyr-Dab-Orn-^DDab-Dab-Trp-Dab-tBuGly-Cys-Ser-^DDab-Ala-)] (cyclo(AICY[Dab][Orn][dDab][Dab]W[Dab][Tle]CS[dDab]); disulfide 3-12)	0.5	8	2	1				

Reference: patent US11753446B2, “Beta-hairpin peptidomimetics” (POLYPHOR AG, priority 2014, dated 2023)
